We go through five compounds from patent US6552011B1, “(Androst-5-en-17beta -yl)alkyl sulfoxides and sulfones and their use for control of fertility” (Akzo Nobel NV, priority 1999, dated 2003).

What all share (type): cell-based, mice (B6D2-F1, strain C57BL×DBA)
Test [1] deals with denuded oocytes (DO). The experiment in a line: Oocyte assay, antagonistic testing, DO assay (inhibition of FF-Mas induced oocyte maturation). The following applies: FF-Mas 5 μM, compound 5 μM, hypoxanthine 4 mM medium, 22 hours culture, number in brackets = control (FF-Mas alone). As for the experimental part: (§1) The meiosis inhibiting activity of the (androst-5-en-17β-yl)alkyl sulfoxides and sulfones of the invention is measured in an in vitro oocyte assay as the ability to inhibit the FF-Mas or 22S-hydroxy-FF-Mas induced maturation, in hypoxanthine media, in denuded oocytes (DO) or cumulus enclosed oocytes (CEO), respectively. The compounds can be used to inhibit meiosis in both male and female and thus can be used as contraceptive agents.
(§2) Natural resumption of meiosis can be mimicked in vitro by addition of FF-Mas or other agonists to the culture medium containing hypoxanthine. The antagonistic activity of the compounds is measured as the ability to inhibit the FF-Mas or 22S-hydroxy-FF-Mas induced oocyte maturation in denuded oocytes or cumulus enclosed oocytes, respectively, in vitro.
(§3) Ovaries are obtained from immature female mice (B6D2-F1, strain C57BL×DBA). At the age of 19, 20 or 21 days the mice are injected subcutaneously with a single dose of 20 IU follicle stimulating hormone (Humegon, Organon, The Netherlands) in saline.
Forty-eight hours after follicle stimulating hormone injection mice are killed by cervical dislocation. The ovaries are removed, freed of extraneous tissue and placed in a multidish containing 0.5 ml preparation medium at 37° C. L-15 Leibovitz medium (Gibco, pH 7.3±0.1) supplemented with bovine serum albumin (3 mg.ml^−1), L-glutamine (0.23 mM), sodium pyruvate (2 mM) and hypoxanthine (4 mM) is used as preparation medium. […]
(§4) The oocyte assay is performed in 3 blocks, each block represents the ovaries of one mouse (randomized block design). […] At t=0 the number of oocytes with intact germinal vesicles (GV) or germinal vesicle break-down (GVBD) is counted under an inverted microscope with differential interference contrast equipment. […] At the end of the culture period the number of oocytes with GV or GVBD per group is counted. For statistical analysis the percentage germinal vesicle breakdown is calculated for each group in one block. […]

For test [2], the system named is cumulus enclosed oocytes (CEO). The experiment in a line: Oocyte assay, antagonistic testing, CEO assay (inhibition of 22S-hydroxy-FF-Mas induced oocyte maturation). The settings on record: 22S-hydroxy-FF-Mas 5 μM, hypoxanthine 4 mM medium, 22 hours culture, number in brackets = control (22S-hydroxy-FF-Mas alone). As for the experimental part:
as §1, §2, §3
Forty-eight hours after follicle stimulating hormone injection mice are killed by cervical dislocation. The ovaries are removed, freed of extraneous tissue and placed in a multidish containing 0.5 ml preparation medium at 37° C. […]
as §4, with “block. These percentages are subjected to arcsin transformation, and differences between control and test compounds are analyzed by an ANOVA test for a randomized block design.” for “block.”

The subject of test [3] is denuded oocytes (DO). The experiment in a line: Oocyte assay, agonistic testing, DO assay (overcoming hypoxanthine maintained meiotic arrest). The settings on record: hypoxanthine 4 mM medium, 22 hours culture, number in brackets = control.
Excerpt: Oocytes arrested in meiosis contain diffused chromosomes which are surrounded by an intact nuclear envelope known as the germinal vesicle (GV). Upon reinitiation of meiosis by the midcycle gonadotropin surge, the chromosomes recondense and the GV breaks down (GVBD). In vivo, the oocyte is exposed to hypoxanthine (HX), which maintains the oocyte arrested in the meiotic prophase. This meiotic arrest can be mimicked in vitro by addition of hypoxanthine to the culture medium. The agonistic activity of meiosis activating substances is measured as the ability to overcome the hypoxanthine maintained meiotic arrest in denuded oocytes (DO) or cumulus enclosed oocytes (CEO), i.e. as the ability to induce meiotic resumption in vitro.
as §3
Forty-eight hours after follicle stimulating hormone injection mice are killed by cervical dislocation. The ovaries are removed, freed of extraneous tissue and placed in a multidish containing 0.5 ml preparation medium at 37° C. L-15 Leibovitz medium (Gibco, pH 7.3±0.1) supplemented with bovine serum albumin (3 mg.ml^−1), L-glutamine (0.23 mM), sodium pyruvate (2 mM) and hypoxanthine (4 mM) is used as preparation medium. The antral follicles of the ovaries are punctured under a dissecting microscope using two 27-gauge needles attached to two 1 ml syringes. Cumulus enclosed oocytes (CEO) of uniform size are selected with a mouth-controlled pipette and rinsed in 0,5 ml fresh preparation medium. About 20 CEO are obtained from one ovary.
Oocytes freed from cumulus cells, i.e. denuded oocytes (DO), are obtained by gently flushing CEO through a fine-bore mouth-controlled pipette. DO were collected in fresh MEM alpha medium, containing bovine serum albumin (3 mg.ml^−1), L-glutamine (0.23 mM), sodium pyruvate (2 mM) and hypoxanthine (4 mM), and washed twice before transfer to the test medium.
as §4, with “block. These percentages are subjected to arcsin transformation, and differences between control and test compounds are analyzed by an ANOVA test for a randomized block design.” for “block.”

SMILES strings stand for the structures.

In the case of `C=C(C)C[S@+]([O-])C[C@@H](C)[C@H]1CC[C@H]2[C@@H]3CC=C4C(C)(C)[C@@H](O)CC[C@]4(C)[C@H]3CC[C@]12C` [Example 1a, [3β,20S,(21R)]-4,4,20-Trimethyl-21-[(2-methyl-2-propenyl)sulfinyl]pregn-5-en-3-ol], the results for the “% GVBD DO assay exp.(control)” value in the test with denuded oocytes (DO) [1] and in the test with denuded oocytes (DO) [3] (compound 5 μM) were 14(84) % and 3(12) %, respectively. In test [2] (compound 1.0 μM), the “% GVBD CEO assay exp.(control)” value is given as 9(96)^3%.

Turning to `CC(C)CC[C@@H](O)[C@@H](C)[C@H]1CC[C@H]2[C@@H]3CC=C4C[C@@H](O)CC[C@]4(C)[C@H]3CC[C@]12C` [22R-hydroxycholesterol, (3β,20S,22R)-cholest-5-en-3-ol, reference compound], in the test with denuded oocytes (DO) [1], the “% GVBD DO assay exp.(control)” value is on record as 38(89) %. In addition, in test [2] (compound 2.5 μM), the “% GVBD CEO assay exp.(control)” value is recorded as 52(89)^4%.

Consider `CC(C)=CC[C@H](O)[C@@H](C)[C@H]1CC=C2C3=C(CC[C@@]21C)[C@@]1(C)CC[C@H](O)C(C)(C)[C@@H]1CC3` [22S-hydroxy-FF-Mas, (3β,5α,20S,22S)-4,4-dimethylcholesta-8,14,24-triene-3,22-diol, reference compound], for which the “% GVBD DO assay exp.(control)” value with denuded oocytes (DO) [3] (compound 5 μM) is reported as 97(2) %.

Turning to `C[C@H](C[S@@+]([O-])c1ccccc1)[C@H]1CC[C@H]2[C@@H]3CC=C4C(C)(C)[C@@H](O)CC[C@]4(C)[C@H]3CC[C@]12C` [Example 3a, [3β,20S,(21R)]-4,4,20-Trimethyl-21-(phenylsulfinyl)pregn-5-en-3-ol], the “% GVBD DO assay exp.(control)” value is given as 4(84) % in the test with denuded oocytes (DO) [1] and 4(12) % with denuded oocytes (DO) [3] (compound 5 μM). Also, in test [2] (compound 1.0 μM), the “% GVBD CEO assay exp.(control)” value is given as 34(96)^3%.

Consider `CC(C)=CCC[C@@H](C)[C@H]1CC=C2C3=C(CC[C@@]21C)[C@@]1(C)CC[C@H](O)C(C)(C)[C@@H]1CC3` [FF-Mas, (3β,5α,20R)-4,4-dimethylcholesta-8,14,24-trien-3-ol, reference compound], for which the “% GVBD DO assay exp.(control)” value with denuded oocytes (DO) [3] (compound 10 μM) is on record as 84(7) %.
